Here are results for one molecule from BindingDB's records for patent US11185537 (Novartis, 2021).

In assay [1] the target is Zinc finger protein Helios (Homo sapiens, UniProt Q9UKS7).
Assay [2] has as its target DNA-binding protein Ikaros (Human, UniProt Q13422).

Molecules are shown by their SMILES.

Sequence of Zinc finger protein Helios (Q9UKS7 whole entry): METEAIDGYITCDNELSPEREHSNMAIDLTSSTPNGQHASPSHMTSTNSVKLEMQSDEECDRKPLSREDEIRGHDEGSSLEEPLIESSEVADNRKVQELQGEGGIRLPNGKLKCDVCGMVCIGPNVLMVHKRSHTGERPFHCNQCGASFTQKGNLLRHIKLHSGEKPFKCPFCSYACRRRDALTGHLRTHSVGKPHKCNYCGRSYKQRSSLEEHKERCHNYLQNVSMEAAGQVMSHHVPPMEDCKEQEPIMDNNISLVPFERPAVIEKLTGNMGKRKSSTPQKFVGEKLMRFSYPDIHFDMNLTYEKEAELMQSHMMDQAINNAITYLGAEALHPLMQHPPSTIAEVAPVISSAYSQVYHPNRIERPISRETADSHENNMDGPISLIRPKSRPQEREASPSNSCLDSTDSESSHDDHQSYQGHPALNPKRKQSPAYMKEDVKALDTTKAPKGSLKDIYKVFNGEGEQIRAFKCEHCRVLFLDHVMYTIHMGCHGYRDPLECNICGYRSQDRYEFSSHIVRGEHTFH
Sequence of DNA-binding protein Ikaros (Q13422 whole entry): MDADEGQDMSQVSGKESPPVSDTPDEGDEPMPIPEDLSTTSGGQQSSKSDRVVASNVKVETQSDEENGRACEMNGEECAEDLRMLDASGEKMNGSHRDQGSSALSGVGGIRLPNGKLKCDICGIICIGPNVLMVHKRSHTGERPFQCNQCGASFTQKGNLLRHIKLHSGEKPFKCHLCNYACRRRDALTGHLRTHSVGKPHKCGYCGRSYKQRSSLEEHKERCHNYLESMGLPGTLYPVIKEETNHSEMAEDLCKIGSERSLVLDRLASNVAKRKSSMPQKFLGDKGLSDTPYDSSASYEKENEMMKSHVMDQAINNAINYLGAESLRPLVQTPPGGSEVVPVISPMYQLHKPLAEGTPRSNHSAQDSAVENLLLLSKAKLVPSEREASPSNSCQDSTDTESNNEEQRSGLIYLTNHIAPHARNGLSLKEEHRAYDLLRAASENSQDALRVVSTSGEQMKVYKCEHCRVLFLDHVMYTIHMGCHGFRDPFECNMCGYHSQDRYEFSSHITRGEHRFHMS

`CN[C@H]1CC=CC[C@@H]1N(C)c1ccc2c(c1)CN(C1CCC(=O)NC1=O)C2=O` (some centres not stated) [US11185537, Compound Mix]: the EC50 in assay [1] stood at 230 nM; in assay [2], 120 nM.
